From patent US3962269A, “1,3-Propandiol intermediates” (Eli Lilly and Company, priority 1975, dated 1976)
Counter-ions that a name gives are not always drawn.

Experiments:
[1] = rat tail jerk assay, analgesic activity; format: in vivo, rat (Sprague-Dawley females); conditions: for ED50: dose giving significant peak analgesic effect in 50 percent of test animals; for PT (peak analgesic time), Rat Tail Jerk, Oral / PT (peak analgesic time), Rat Tail Jerk, Subcutaneous: time after dosing of maximum analgesic response
Excerpt: The other analgesic method was the rat tail jerk assay described by Robbins, J. Amer. Pharm. Assoc. Sci. Ed., 44, 497 (1955). The rats were Sprague-Dawley females weighing 70-90 g. Briefly, the tail was held on a temperature controlled tail rest near a nichrome resistance wire through which a current could flow. A switch used to start the flow of current to heat the wire simultaneously started a timer. When a jerk of the tail was detected by the operator, the switch was released and the latency of the response was recorded as the "reaction time." The tail was placed near the hot wire stimulus for a maximum duration of 30 seconds. Twenty rats were tested as a group in a randomized order. At least five rats were used for each treatment and each rat was dosed and tested only once.
(§1) Table 1 below gives the results of testing representative compounds of this invention as analgesics by the above methods. The first four columns in Table 1 describe the particular compound tested. The next eight columns give the mouse writhing results and the rat tail jerk results both by oral and subcutaneous administration. The columns headed PT ("Peak Analgesic Time") give the time in minutes after dosing at which the maximum analgesic responses are measured. The columns headed "ED50 (mg./kg.)" give the doses (ED50) in milligrams per kilogram (mg./kg.) of body weight that produce a significant peak analgesic effect in 50 percent of test animals.

[2] = mouse writhing assay (acetic acid), analgesic activity; format: in vivo, mouse (Cox standard males); conditions: for ED50 / PT (peak analgesic time), Mouse Writhing, Oral / PT (peak analgesic time), Mouse Writhing, Subcutaneous: mouse; for ED50: dose giving significant peak analgesic effect in 50 percent of test animals; for PT (peak analgesic time), Mouse Writhing, Oral / PT (peak analgesic time), Mouse Writhing, Subcutaneous: time after dosing of maximum analgesic response
Protocol: Analgesic activity for representative compounds of the instant invention was determined with two standard animal techniques. The mouse writhing assay used was a modification of the method wherein frequency of writhing [Hendershot and Sorsaith, J. Pharm. Exp. Ther. 125, 237 (1959)] is observed after intra peritoneal administration of 0.6 percent acetic acid [Koster et al., Fed. Proc. Soc. Expt. Biol. 18, 412 (1959)]. The mice were Cox standard males weighting 20-22 gm. The number of writhes was determined for each of five mice during the period 5-15 minutes after acetic acid treatment. The percent inhibition due to drug treatment was determined by comparison with control mice.
as §1

[3] = cited from earlier work
[4] = analgesic activity, general statements; format: in vivo; conditions: in words
[5] = oral, read-out: ED50, Rat Tail Jerk, Oral
[6] = sc, subcutaneous, read-out: ED50, Rat Tail Jerk, Subcutaneous
[7] = oral, read-out: ED50, Mouse Writhing, Oral
[8] = sc, subcutaneous, read-out: ED50, Mouse Writhing, Subcutaneous

Row | SMILES | ED50 [1, 5] | PT (peak analgesic time), Rat Tail Jerk, Oral ([1]; oral) | ED50 [1, 6] | PT (peak analgesic time), Rat Tail Jerk, Subcutaneous ([1]; subcutaneous) | ED50 [2, 7] | PT (peak analgesic time), Mouse Writhing, Oral ([2]; oral) | PT (peak analgesic time), Mouse Writhing, Subcutaneous ([2]; subcutaneous) | ED50 [2, 8] | analgesic activity (literature) [3] | side effects (literature) [3] | duration of analgesic action in mice ([2]; mice) | analgesic activity [4]
1 | Cc1ccc(C(C2COCOC2)N(C)C)cc1.O=C(O)/C=C\C(=O)O (stereo not drawn) [dl 4-CH3 --C6 H4, H, Maleate, N,N-dimethyl-α-(4-methylphenyl)-m-dioxane-5-methylamine maleate] | 60 mg/kg | 45 min | 8 mg/kg | 30 min | 110 mg/kg | 45 min | 30 min | 20 mg/kg |  |  |  | 
2 | CC1OCC(C(c2ccccc2)N(C)C)CO1 (stereo not drawn) [dl C6 H5, CH3, N,N,2-Trimethyl-α-phenyl-m-dioxane-5-methylamine] | 12 mg/kg | 15 min | 2.8 mg/kg | 20 min | 19 mg/kg | 15 min | 15 min | 3.6 mg/kg |  |  |  | 
3 | CN(C)C(c1cccnc1)C1COCOC1.Cl.Cl (stereo not drawn) [dl 3-pyridyl, H, 2HCl, N,N-dimethyl-α-(3-pyridyl)-m-dioxane-5-methylamine dihydrochloride] | 7 mg/kg | 15 min | 7 mg/kg | 15 min | 25 mg/kg | 30 min | 30 min | 10 mg/kg |  |  |  | 
4 | CN(C)C(c1ccccc1)C1COCOC1.Cl (stereo not drawn) [dl C6 H5, H, HCl, N,N-dimethyl-α-phenyl-m-dioxane-5-methylamine hydrochloride] | 27 mg/kg | 15 min | 4.5 mg/kg | 15 min | 28 mg/kg | 45 min | 15 min | 15 mg/kg |  |  |  | 
5 | CC1OCC(CN(C)C)O1 (stereo not drawn) [N,N,2-Trimethyl-1,3-dioxolane-4-methylamine] |  |  |  |  |  |  |  |  | mild analgesic | cholinergic side effects |  | 
6 | CCC1OCC(C(c2ccccc2)N(C)C)CO1 (stereo not drawn) [dl C6 H5, C2 H5, N,N-dimethyl-2-ethyl-α-phenyl-m-dioxane-5-methylamine] | 21 mg/kg | 15 min | 3.4 mg/kg | 15 min | 23 mg/kg | 75 min | 75 min | 19 mg/kg |  |  | long acting in mice | 
7 | CN(C)C(c1ccccc1)C1COCOC1 (single isomer, unassigned) [1-N,N-dimethyl-α-phenyl-m-dioxane-5-methylamine] |  |  |  |  |  |  |  |  |  |  |  | analgesically active
8 | CN(C)C(c1ccccc1)C1COCOC1 (single isomer, unassigned) [l C6 H5, H, HCl, l-N,N-dimethyl-α-phenyl-m-dioxane-5-methylamine hydrochloride] | 10 to 20 mg/kg | 15 min | 7 mg/kg | 15 min | 16 mg/kg | 15 min | 15 min | 6 mg/kg |  |  |  | 
9 | c1ccc(C2(c3ccccc3)OC[C@H]([C@@H]3CCCCN3)O2)cc1 [Dexoxadrol, d-2,2-diphenyl-4-(2-piperdyl)-1,3-dioxolane hydrochloride] |  |  |  |  |  |  |  |  | mild analgesic | high incidence of psychotomimetic side effects |  | 
